Data as given in patent US6265445A, “Antiarrhythmic compounds” (priority 1997, dated 2001).
Read-outs that look alike come from different tables or passages of the source.

Legend:
[1] = tested on: arrhythmias following coronary artery occlusion in conscious rats; assay: Occlusion arrhythmia following acute coronary artery ligation in conscious rats; assay type: in vivo, male rats
Source text: The method used is essentially in agreement with the method of Lepran et al. [J. Pharmacol. Methods 9, pp. 219-230 (1983)].
During a previous operation, male rats weighing 340 to 360 g each were fitted with a loose surgical thread loop around the left descending coronary vessel, at about 2 mm from its origin. The ends of the loop thread were led out from the chest under the skin, then the surgical wound was closed. After complete recovery from this previous operation (7 to 8 days) acute myocardial ischaemia was induced by contracting the loose ligation in the conscious, freely moving animals. ECG was continuously registered by using bipolar chest electrodes before the ligation of the coronary artery and during the first 15 minutes of ischaemia. The ratio of survivals was determined and the developed arrhythmias were evaluated according to the Lambeth Convention [Walker et al.: Cardiovasc. Res. 22, 447-455 (1988)]. For evaluation of the arrhythmic episodes a score system was also employed by considering the severity of episodes on the basis of a score system from 0 to 6. Both d-sotalol and the substance of Example 15, respectively, were suspended in 1% methylcellulose and administered orally through a gastric sound at 1 hour before the compression of the coronary vessel. The control animals received a treatment with the same volume, i.e. 5 ml/kg of vehicle.

[2] = tested on: right ventricular papillary muscle of dogs; assay: Intracellular microelectrode technique: action potential parameters, ventricular papillary muscle; set-up: species or system mongrel dogs
Protocol: The method used is essentially in agreement with the method of Papp et al. [J. Cardiovascular Pharmacol. Ther. 1, 287-296 (1996)].
Right ventricular papillary muscle and Purkinje's fibres were prepared from the hearts of mongrel dogs (weighing 5 to 10 kg each). The preparations were placed into an organ bath (37° C.) containing modified Tyrode's nutrient medium. The preparations were excited by a basal frequency of 1 Hz. During the experiments, the frequency of stimulation was varied under broad limits by a computer-guided stimulator. The intracellular action potentials were registered by using glass capillary microelectrodes filled with 3 N potassium chloride solution (standard intracellular microelectrode techniques). The resting potential (RP), the amplitude of the action potential (APA) as well as the duration of the action potential (APD) were measured by using an IBM 386 compatible computer by means of an own-developed software. The compounds under test were directly added into the organ bath after dilution of the stock solutions according to the final concentrations desired. The effects of the compounds were observed after an incubation time of 30 to 40 minutes.

[3] = tested on: isolated right ventricular trabecule of dog heart; assay: Extracellular electrophysiological measurements: impulse conduction time and effective refractory period; set-up: species or system mongrel dogs; conditions: for activation at 2 µM / activation at 10 µM: Canis lupus familiaris
Protocol: Right ventricular trabecules were prepared from the heart of mongrel dogs (weighing 5 to 10 kg each). The surviving heart pieces were placed into an organ bath (37° C.) containing modified Tyrode's nutrient medium and excited by point stimulation with a basal frequency of 1 Hz. Extracellular bipolar platinum electrodes were placed on the surface of the preparations, by means of which the propagation of the superficial potentials were registered; thus, the determination of the time of impulse conduction or the rate of impulse conduction, respectively, and the effective refractory period (ERP) became possible. During our experiments,the frequency of stimulation was temporarily varied from 0.5 Hz up to 3 Hz. The tested compounds were directly added to the organ bath after dilution of the stock solution according to the desired final concentration.

[4] = tested on: occlusion and reperfusion arrhythmias in anaesthetized dogs; assay: Occlusion and reperfusion arrhythmias following acute coronary ligation in anaesthetized dogs; assay type: in vivo, mongrel dogs
Protocol: The method used is essentially in agreement with the method of Vegh et al. [Basic Res. Cardiol. 82, 159-171 (1987)].
Mongrel dogs of both sexes weighing 10 to 20 kg each were anaesthetized by a mixture of chloralose (60 mg/kg) and urethane (200 mg/kg) and the animals were maintained on artificial respiration. After opening the chest, the ramus descendens anterior (LAD) branch of the left coronary artery of heart was prepared from the first main collateral branch and a loose loop from surgical thread was placed around it. During our experiments, the blood pressure of the animal was measured by using a cannule introduced to the left femoral artery and even the standard ECG parameters by using needle electrodes were continuously registered. The arrhythmias were induced by the occlusion for 25 minutes of a loop placed round the LAD. The survival after lethal arrhythmias and frequency of the arrhythmias were registered. The 28 dogs used in the experiments were divided into three groups. The compound of Example 15 was administered in a dose of 1 mg/kg to 8 animals; d-sotalol was given in a dose of 3 mg/kg to 10 animals by a single intravenous injection 10 minutes before compression of the coronary vessel. The control dogs (10 animals) received 5 ml of physiological saline solution in the same manner as the treated animals.
By using this method it can be stated whether the substance investigated would be effective for protection against arrhythmias following the ligation of the coronary artery.

dog Purkinje's fibres = assay: Effect on early after-depolarization induced by dofetilide and BaCl2; conditions: 2 μM; EAD induced by 1 μM dofetilide and 20 μM BaCl2
Protocol: An early after-depolarization (EAD) was induced on dog Purkinje's fibres by the simultaneous use of 1 μM dofetilide and 20 μM BaCl2. These EAD-s were abolished by the addition of the compound (2 μM) of Example 15.

[5] = p.o. 25 mg/kg, first 15 minutes
[6] = Table 4, ventricular muscle, 5 μM, 1 Hz, N = 6
[7] = 1 Hz, read-out: Prolongation (%) of ERP
[8] = 1 Hz, read-out: Prolongation (%) of impulse conduction time
[9] = 3 Hz, read-out: Prolongation (%) of ERP
[10] = 3 Hz, read-out: Prolongation (%) of impulse conduction time

## Cc1cccc(C)c1OCC(C)N(C)CCc1ccc(NS(C)(=O)=O)cc1.Cl (centres unmarked) [Example 15, N-[4-[2-[N-Methyl-N-[2-(2,6-dimethylphenoxy)-1-methylethyl]amino]ethyl]phenyl]methanesulfonamide hydrochloride]
[1]; 25 mg/kg, first 15 minutes of myocardial infarction
  heart rate (in words): statistically unchanged
[1]; oral administration
  antiarrhythmic effect (in words): showed an antiarrhythmic effect even after oral administration
[1]; p.o. 25 mg/kg
  Survival 15 minutes: 8/50
  Survival 16 hours: 7/44
[1]; [5]
  Occurrence of arrhythmias: Brady: 2/12
  Occurrence of arrhythmias: Free (no arrhythmia was observed): 3/19
  Occurrence of arrhythmias: Other: 9/56
  Occurrence of arrhythmias: VF: 10/63
  Occurrence of arrhythmias: VT: 12/75
[1]; p.o. 25 mg/kg, score system from 0 to 6
  Arrhythmia Score: 3.94 ± 0.64
[2]; 5 μM
  APA (amplitude of the action potential): 106 mV
  APD50 (time of 50% repolarization): 210 ms
  APD90 (time of 90% repolarization): 261 ms
  RP (resting potential): -85 mV
  Recovery Ampl: 83.6 V/s
  Recovery Ampl/Plateau: 0.35
  Recovery Plateau: 245.5 V/s
  Vmax (maximum rate of depolarization): 203 V/s
  difference between the effects of Example 15 and its enantiomers (in words): No essential difference could be observed
[2]; 5 μM, Gy: kinetics of rapid restoration
  Trecovery (recovery time constant of Vmax): 270.1 ms
[2]; 5 μM, ventricular muscle of the dog
  effect on APD in ventricular muscle (in words): prolonged APD in the ventricular muscle of the dog
[2]; [6]
  APA: 106.3 ± 2.0 mV
  APD50: 209.5 ± 7.1 ms
  APD90: 260.5 ± 6.5 mS
  RP: -84.5 ± 1.3 mV
  Vmax: 203.0 ± 11.4 V/s
  Vmax time of recovery T: 270.1 ± 14.4 ms
  Vmax time of recovery amplitude: 83.6 ± 13.5 V/s
  Vmax time of recovery amplitude, percentage in parentheses: 35 ± 5%
  Vmax time of recovery plateau phase: 245.5 ± 28.0 V/s
[2]; concentrations of Table 2
  effect on duration of the action potential (in words): simultaneous prolongation of duration of the action potential (APD)
[2]; rapid recovery kinetics, concentrations of Table 2
  effect on Vmax (in words): mexiletine-like inhibition of Vmax
[3]; [7]
  activation at 2 µM: 11.6%
  activation at 10 µM: 22.8%
[3]; [8]
  activation at 2 µM: 11.1%
  activation at 10 µM: 42%
[3]; [9]
  activation at 2 µM: 13.6%
  activation at 10 µM: 31.3%
[3]; [10]
  activation at 2 µM: 13.4%
  activation at 10 µM: 73.8%
[3]; concentrations of Table 1
  effect on effective refractory period (in words): simultaneous prolongation of the effective refractory period (ERP)
  effect on impulse conduction (in words): significantly prolonged the time of impulse conduction in a frequency-dependent manner
[4]; 1 mg/kg i.v.
  Complete survival, animals: 7/8
  Complete survival, percent: 87.5%
[4]; 1 mg/kg, versus d-sotalol 3 mg/kg
  protection from arrhythmogenic effects of ligation and reperfusion (in words): protected from the arrhythmogenic effects of ligation and reperfusion of the coronary artery to a higher degree than a dose of 3 mg/kg of d-sotalol
[4]; occlusion, 1 mg/kg i.v.
  ES (extrasystole): 36.6 ± 84.1
  VF (ventricular fibrillation), animals: 1/8
  VF (ventricular fibrillation), percent: 12.5%
  VT (ventricular tachycardia), animals: 1/8
  VT (ventricular tachycardia), percent: 12.5%
[4]; reperfusion, 1 mg/kg i.v.
  VF (ventricular fibrillation), animals: 0/7
  VF (ventricular fibrillation), percent: 0%
Dog Purkinje's fibres
  effect on early after-depolarization (EAD) (in words): abolished
